In patent US12433903B2 (priority 2021, dated 2025):

Columns and labels:
all the UGTs combined = assay: UGT reaction phenotyping, all the UGTs combined; assay type: in vitro ADME, Human
Source text: Experimental Summary: UGT Reaction Phenotyping (7 Isoforms).

[1] = system: cryopreserved hepatocytes; assay: Hepatocyte stability and metabolite profiling, dog; assay type: in vitro ADME; conditions: dog hepatocyte samples, 10 and 20 minute
Procedure: The objective of this study was to investigate the stability of the test compound, CBG, in human, rat, dog, mouse, monkey and minipig cryopreserved hepatocytes. Follow-on metabolite profiling was performed.
CBG was incubated up to 2 hr with cryopreserved hepatocytes. Cryopreserved hepatocytes in suspension were added to test compound in supplemented media following pre-incubation to initiate the reaction and the reactions were stopped by organic solvent at the appropriate time points. The termination plates were centrifuged and sample supernatants were analysed using Cyprotex generic LC MS/MS conditions to generate intrinsic clearance values for CBG. Two control compounds for each species were included in the assay and if the values for these compounds were not within the specified limits the results were rejected and the experiment repeated.
Following the hepatocyte stability assay the samples were 59 tilized for metabolite profiling using suitable high-resolution LC-MS/MS conditions. The 40 and 60 minute human samples, 20 and 120 minute rat samples, 10 and 20 minute dog and monkey samples, 20 and 60 minute mouse samples, and 40 and 120 minute minipig samples were compared against the 0 minute control sample to establish which and how many metabolites were formed. […]
The areas and percentages reported for the parent and metabolites were calculated using the XIC data. […]

[2] = PK study after oral (PO) or intraperitoneal (IP) administration; assay type: in vivo, male Sprague Dawley rats; conditions: CBG 30 mg/kg PO or IP; Compound 1 31.5 mg/kg PO; Compound 2 32.7 mg/kg PO
Procedure: This study evaluated the pharmacokinetics of (E)-2-(3,7-dimethylocta-2,6-dien-1-yl)-3-methoxy-5-pentylphenol (1) and (E)-2-(3,7-dimethylocta-2,6-dien-1-yl)-1,3-dimethoxy-5-pentylbenzene (2) following oral (PO) or intraperitoneal (IP) administration to male Sprague Dawley rats.
For the oral formulation the test article was added to the appropriate amount of Maisine and stirred until uniform. Next Labrasol was added to the formulation and allowed to stir until uniform. Finally, water will be slowly added to the stirring formulation to achieve the final volume.
For the IP formulation the test article was added to the appropriate amount of ethanol and stirred until uniform. Next, the appropriate amount of tween-20 was added to the stirred formulation. Finally, the appropriate amount of saline was slowly added to the stirred formulation to achieve the final volume.
Animals were fasted the evening prior to dosing with food returned at 4 h postdose, and the animals weighed on the morning of dose administration.
IP doses were administered via injection to the intraperitoneal region. PO doses were delivered into the stomach via syringe and gavage tube.
Blood was collected from via direct jugular stick or from the tail vein. Blood samples were kept on ice until being centrifuged at 3200 RPM for 10 minutes at ˜5° C. within 1 h of collection. Plasma was split into 2 cryovials in approximately equal volumes (0.05 mLs) and stored at −20° C.±5° C. until shipment.

SMILES | activity of UGT2B7 relative to UGT1A9 (all the UGTs combined) | share of the activity for all the UGTs combined represented by UGT1A9 (all the UGTs combined) | metabolites observed (number) [1] | glucuronidation / glucuronide formation in plasma (in words) [2]
CCCCCc1cc(O)c(C/C=C(\C)CCC=C(C)C)c(O)c1 [CBG, cannabigerol] | approximately 1/10 | ~80% | three | converted by glucuronidation to CBG-glucoronide
CCCCCc1cc(O)c(C/C=C(\C)CCC=C(C)C)c(OC)c1 [Compound 1, (E)-2-(3,7-dimethylocta-2,6-dien-1-yl)-3-methoxy-5-pentylphenol] | – | – | – | significantly reduced levels of glucuronidation compared to CBG
